Data on three molecules can be found in PMC7948648 (The Journal of Biological Chemistry, 2021).

The test system of one data set is T1, PARP1.
T1 construct: To assess if these observations extend to endogenous cellular settings; endogenous in cells; host or cells: NCI-H1048 cell lysate
More on the design: method as in PMID 28001384. The following applies: selectivity PARP1 over TNKS1; cited from earlier work.

Another data set deals with TNKS1. As to the kind of experiment: Biotin probe competition pulldown in NCI-H1048 cell lysate, Western blot for TNKS1. As to conditions: talazoparib versus olaparib, 30 min pretreatment, biotin probes.
For data set [1] the following is noted: clinical dose of 1 mg once a day; cited from earlier work.
Data set [2] concerns the molecule itself. The data set can be described thus: crystal structure; TNKS1 ART domain, apo and with talazoparib, olaparib, niraparib or veliparib; sitting-drop vapor diffusion at 4 °C; several crystal forms with multiple molecules in the asymmetric unit.

For `CN(C)CC(=O)Nc1ccc2[nH]c(=O)c3ccccc3c2c1` [PJ34], the “fold lower IC50 for PARP1 than for TNKS1” value in the data set on PARP1 is “over 25 fold”.

Regarding `Cn1ncnc1[C@H]1c2n[nH]c(=O)c3cc(F)cc(c23)N[C@@H]1c1ccc(F)cc1` [Talazoparib, talazoparib], the “greater ability to prevent binding to TNKS1” value with TNKS1 is given as “approximately 1000 fold”. Moreover, the free plasma concentration in data set [1] is listed as approximately 17 nM.

B1: tankyrase1 (TNKS1) ART domain (residues 1104-1314) (domain or fragment, UniProt O95271 1104-1314, looked up)
chain: QGTILLDLAPEDKEYQSVEEEMQSTIREHRDGGNAGGIFNRYNVIRIQKVVNKKLRERFCHRQKEVSEENHNHHNERMLFHGSPFINAIIHKGFDERHAYIGGMFGAGIYFAENSSKSNQYVYGIGGGTGCPTHKDRSCYICHRQMLFCRVTLGKSFLQFSTMKMAHAPPGHHSVIGRPSVNGLAYAEYVIYRGEQAYPEYLITYQIMKPE
notes: tankyrase1 (TNKS1, PARP5a), ART domain, residues 1104-1314; also called PARP5a; not shown: His6, N-terminal, cleaved
For B1, in data set [2], the binding result was “binds”.
